The subject of test [1] is human tumor xenografts of diverse histological types. The conditions noted are these: nude mice; cited from earlier work.
The subject of a further test is breast cancer lines. The conditions noted are these: one of two breast cancer lines studied in vivo; cited from earlier work.
A further test concerns orthotopic glioma. The settings on record: nude mice; cited from earlier work.
Test [2] has as its system histologically diverse tumor cells. The conditions noted are these: cited from earlier work.
Test [3] relates to human glioblastoma cell line. The settings on record: in vitro; cited from earlier work.
The test system of the next test is human pancreatic tumors. The conditions noted are these: several human pancreatic tumors in nude mice; cited from earlier work.
A further test deals with human colon line GC3. Nature of the test: human colon (GC3) mouse xenograft test procedure. The test is classed as in vivo. The conditions noted are these: gemcitabine on days 1, 4 and 8 in the first cycle. (A xenograft is tissue or cells of one species grown in another, often human tumour cells in immunodeficient mice.)

Where a name gives a salt, the structure may show the parent alone.

Method for human colon line GC3: Female CBA/CaJ mice (Jackson Laboratories, Bar Harbor, Me.), 4 weeks of age, were immune-deprived by thymectomy, followed 3 weeks later by whole-body irradiation (1200 cGy) using a ^137Cs source. Mice received 3×10^6 nucleated bone marrow cells within 6-8 h of irradiation. Tumor pieces of approximately 3 mm^3 were implanted in the space of the dorsal lateral flanks of the mice to initiate tumor growth. Tumor-bearing mice were randomized into groups of seven prior to initiating therapy. Mice bearing tumors each received drug when tumors were approximately 0.20-1 cm in diameter. Tumor size was determined at 7-day intervals using digital Vernier calipers interfaced with a computer. Tumor volumes were calculated assuming tumors to be spherical using the formula [(□/6)×d^3], where d is the mean diameter. CCI-779 was given on a schedule of 5 consecutive days for 2 weeks with this cycle repeated every 21 days for 3 cycles. […] The schedule of the other chemotherapy drug for each study was as follows: • Gemcitabine on days 1, 4, 8 in cycle 1 only The combination of CCI-779 and gemcitabine was evaluated in a human colon (GC3) mouse xenograft test procedure. In this test procedure, CCI-779 was given daily ×5 for 2 consecutive weeks every 21 days for 3 cycles and gemcitabine given on days 1, 4, and 8 in the first cycle only.

As to `CO[C@H]1C[C@@H]2CC[C@@H](C)[C@@](O)(O2)C(=O)C(=O)N2CCCC[C@H]2C(=O)O[C@H]([C@H](C)C[C@@H]2CC[C@@H](OC(=O)C(C)(CO)CO)[C@H](OC)C2)CC(=O)[C@H](C)/C=C(\C)[C@@H](O)[C@@H](OC)C(=O)[C@H](C)C[C@H](C)/C=C/C=C/C=C/1C` [CCI-779, Rapamycin 42-ester with 3-hydroxy-2-(hydroxymethyl)-2-methylpropionic acid], the “activity against human tumor xenografts” value in test [1] is on record as “has activity”. Moreover, the sensitivity of gliomas result in test [1] was “particularly sensitive”. Moreover, the tumor growth entry in the test with breast cancer lines and with human pancreatic tumors was “inhibited” each time. Also, in the test on orthotopic glioma, the “activity in orthotopic glioma model” value is on record as “active”. Moreover, the “growth of tumor cells in vitro” value in test [2] (CNS cancer, leukemia (T-cell), breast cancer, prostate cancer and melanoma lines among the most sensitive) was “inhibit the growth”. Besides, the cell cycle effect entry in test [2] (in vitro) is recorded as “arrested cells in the G1 phase”. Also, the “growth factor (platelet-derived)-induced stimulation” value in test [3] is “markedly suppressed”.

For `Nc1ccn([C@@H]2O[C@H](CO)[C@@H](O)C2(F)F)c(=O)n1` [gemcitabine, 2′-deoxy-2′,2′-difluorocytidine monohydrochloride ((beta)-isomer)], the “tumor response in the first cycle” value in the test with human colon line GC3 is given as “tumor regression”.
